Measurements: patent US6011000A, “Compositions for the treatment of blood disorders” (priority 1995, dated 2000)

Key:
[1] = test system: BFU-e (burst forming unit-erythroid); experiment: BFU-e stimulation (colony growth) in cultured peripheral blood mononuclear cells; type: cell-based; settings: Homo sapiens, PBMC, read-out: more BFU-e colonies from the same number of mononuclear cells than control cultures
Procedure: Peripheral blood was collected from normal volunteers and patients with anemia due to sickle cell disease or thalassemia Mononuclear cells were isolated by Ficoll-Hypaque (Pharmacia Biotech; Piscataway, N.J.) centrifugation and cultured in Iscove's Modified Dulbecco's Media (IMDM; GIBCO/BRL; Grand Island, N.Y.) supplemented with 10% fetal calf serum, 300 μg/ml glutamine, 3 units/ml IL 3 (Amgen; Thousand Oaks, Calif.), and 2 units/ml erythropoietin (Terry Fox Labs; Vancouver, B.C.). Chemical compounds were obtained from Sigma Chemical (St. Louis, Mo.) or Aldrich Chemical (Milwaukee, Wis.), unless otherwise indicated, and formulated into pharmaceutical compositions by dissolving in aqueous solutions of media or sterile water pH adjusted to about 7.4. Solutions were sterilized by passage at least once through 0.22 micron Nalgene filters and added to cell cultures at final concentrations that are pharmaceutically achievable in vivo (typically between about 0.1 mM to 2.0 MM). Cells were incubated with compounds for between 13-14 days at 37° C. in humidified 5% CO2, and fed and passed, as necessary. Colony growth, proportion of fetal globin-expressing cells and amounts of fetal globin production were assayed. Results are presented in Table 1 as BFU-e stimulation (colony growth). […]

[2] = test system: fetal globin (gamma globin); experiment: Fetal globin expression in erythroid progenitor cells from cord blood; type: cell-based, human
[3] = test system: hemoglobin polymerization; settings: artificially deoxygenated blood; cited from earlier work
fetal globin production = settings: cited from earlier work
MCF-7 cells = experiment: Growth/viability of human mammary carcinoma cells; type: cell-based; settings: MCF7, 96 h, 4 days, read-out: growth decrease of MCF-7 cells
Procedure: Human mammary carcinoma cells (MCF-7) were cultured alone (controls) and with arginine butyrate or isobutyramide for 4 days. Viability was assayed by FACS after incubation with a fluorescent dye taken up by viable cells (FIG. 6). Growth was decreased by 50% with isobutyramide at 1.0 mM, about 60% with arginine butyrate at 0.5 mM, and greater than 90% with arginine butyrate at 1.0 mM.

γ-globin mRNA = settings: patients with globin disorders; cited from earlier work
[4] = test system: γ-globin promoter (-61 construct, K562 cells); type: cell-based, human
Source text: Functional assay underscores the important role of FRE-γ1 in γ-globin gene expression in K562 cells. To ascertain whether the FRE elements of the γ-globin promoter that were identified by in vivo footprinting were indeed involved in arginine butyrate inducibility for γ-globin gene expression, a series of 5' deletion constructs of the γ-globin promoter, extending from -256 to -61, were constructed and linked them to the NEO gene. Activity of the NEO gene of these constructs, in response to arginine butyrate treatment, was examined by transfecting these reporters into K562 cells. In K562 cells, a construct driven by 256 bp of promoter was able to direct NEO activity expression, resulting in colony formation. […] Deletion to position -61 reduced promoter activity to 33-40% of the activity seen with the -256 bp construct.

Row | SMILES | activation at 100 µM [1] [%] | Gamma/(Gamma + Beta) ([2]; Exp. A, 0.1 mM, 12-13 days, untreated 76.0%) [%] | Gamma/(Gamma + Beta) ([2]; Exp. B, 0.5 mM, 12-13 days, untreated 25.4%, 27.5%) [%] | Gamma/(Gamma + Beta) ([2]; Exp. C, 0.5 mM, overnight, untreated 52.0%) [%] | inhibition of polymerization [3] | stimulation of fetal globin production (fetal globin production) | inhibition at 500 µM (MCF-7 cells; 0.5 mM) [%] | inhibition at 1000 µM (MCF-7 cells; 1.0 mM) [%] | levels of γ-globin mRNA (γ-globin mRNA) | induction of construct activity [4]
1 | O=C(O)COc1ccccc1 [PAA, Phenoxyacetic acid] | 135 | 82.0 | 38.8 | 55.6 | inhibit polymerization |  |  |  |  | 
2 | CCCC(=O)O [AB, arginine butyrate] |  |  |  |  |  | effective in stimulating fetal globin production | ~60 | > 90 | increase in response to butyrate treatment | 2.5-4 fold
